{"source": "patent US20220202703A1", "about": "“IN SITU GEL-FORMING DELIVERY SYSTEMS, METHODS AND COMPOSITIONS” (Poly-Med, Inc., priority 2019, published 2022)", "assay": "Erdafitinib batch release study in artificial urine at 37° C., HPLC", "format": "physicochemical", "details": "in solution / through in vitro study, HPLC PDA detection", "excerpt": "Scope: Load Erdafitinib into a limited number of proprietary delivery systems and perform a batch release study in artificial urine to determine release and stability of the active agent. Erdafitinib sourced from publicly available supplier having 99% purity. Obtained as fine yellow powder. Viscoprene® used as a hydrosetting gel carrier presenting as a high viscosity liquid. An encapsulant was used to provide a diffusion barrier around the Viscoprene/Erdafitinib matrix for some samples.\nFormulation 1: Viscoprene and diluent release matrix. Formulation 2: Viscoprene release matrix. Formulation 3: Viscoprene in Encapsulant A. Formulation 4: Viscoprene in Encapsulant B. Step 1: Prepared release matrices (Erdafitinib in Viscoprene) with or without diluent (active matrix). Each study specimen included approximately 12 mg of drug. Step 2: Active matrix was encapsulated for Formulations 3 and 4. Step 3: Formulations were placed in artificial urine (USP method) at 37° C. Step 4: At time points, artificial urine was changed to fresh artificial urine. Step 5: Samples were analyzed for Erdafitinib content by HPLC.\nAn Isocratic HPLC method (non-stability indicating) able to identify Erdafitinib using a C18 column and water/acetonitrile mobile phase. Calibration curve generated with a R2 value of 0.9999. […] Sample preparation: Erdafitinib mixed readily into Viscoprene matrices. […]"}
{"smiles": "COc1cc(OC)cc(N(CCNC(C)C)c2ccc3ncc(-c4cnn(C)c4)nc3c2)c1", "note": "[Erdafitinib, 1,2-Ethanediamine, N1-(3,5-dimethoxyphenyl)-N2-(1-methylethyl)-N1-(3-(1-methyl-1H-pyrazol-4-yl)-6-quinoxalinyl)-]", "values": [{"measurement": "Erdafitinib stability (in words)", "value": "provisionally stable over a suitable timeframe"}, {"measurement": "Erdafitinib stability (in words)", "setting": "listed as Erdatifinib", "value": "likely stable through in vitro study for extended duration"}]}
